Like-named read-outs stand apart in the source and are kept apart here.
What was measured:
Assay in all cases: SelectScreen Kinase Profiling, single point inhibition and IC50 for off-target kinases
Type in all cases: biochemical
[1] = target: off-target kinases (Homo sapiens, UniProt Q8NEB9); details: PIK3C3 (hVPS34); Cmpd1 1000 μM; ATP Km app; Adapta
[2] = target: off-target kinases (Homo sapiens, UniProt P35968); details: KDR (VEGFR2), ATP Km app, ZLYTE
[3] = target: off-target kinases (Homo sapiens, UniProt Q9UM73, F1174L); details: ALK F1174L, mutant y, LanthaScreen Binding
[4] = target: off-target kinases (Homo sapiens, UniProt Q9HBH9); details: MKNK2 (MNK2), LanthaScreen Binding
[5] = target: off-target kinases (Homo sapiens, UniProt Q9H4B4); details: PLK3, ATP Km app, ZLYTE
[6] = target: T1, off-target kinases (Homo sapiens, UniProt Q99683); details: MAP3K5 (ASK1), LanthaScreen Binding
T1 sequence (Q99683 1-1374): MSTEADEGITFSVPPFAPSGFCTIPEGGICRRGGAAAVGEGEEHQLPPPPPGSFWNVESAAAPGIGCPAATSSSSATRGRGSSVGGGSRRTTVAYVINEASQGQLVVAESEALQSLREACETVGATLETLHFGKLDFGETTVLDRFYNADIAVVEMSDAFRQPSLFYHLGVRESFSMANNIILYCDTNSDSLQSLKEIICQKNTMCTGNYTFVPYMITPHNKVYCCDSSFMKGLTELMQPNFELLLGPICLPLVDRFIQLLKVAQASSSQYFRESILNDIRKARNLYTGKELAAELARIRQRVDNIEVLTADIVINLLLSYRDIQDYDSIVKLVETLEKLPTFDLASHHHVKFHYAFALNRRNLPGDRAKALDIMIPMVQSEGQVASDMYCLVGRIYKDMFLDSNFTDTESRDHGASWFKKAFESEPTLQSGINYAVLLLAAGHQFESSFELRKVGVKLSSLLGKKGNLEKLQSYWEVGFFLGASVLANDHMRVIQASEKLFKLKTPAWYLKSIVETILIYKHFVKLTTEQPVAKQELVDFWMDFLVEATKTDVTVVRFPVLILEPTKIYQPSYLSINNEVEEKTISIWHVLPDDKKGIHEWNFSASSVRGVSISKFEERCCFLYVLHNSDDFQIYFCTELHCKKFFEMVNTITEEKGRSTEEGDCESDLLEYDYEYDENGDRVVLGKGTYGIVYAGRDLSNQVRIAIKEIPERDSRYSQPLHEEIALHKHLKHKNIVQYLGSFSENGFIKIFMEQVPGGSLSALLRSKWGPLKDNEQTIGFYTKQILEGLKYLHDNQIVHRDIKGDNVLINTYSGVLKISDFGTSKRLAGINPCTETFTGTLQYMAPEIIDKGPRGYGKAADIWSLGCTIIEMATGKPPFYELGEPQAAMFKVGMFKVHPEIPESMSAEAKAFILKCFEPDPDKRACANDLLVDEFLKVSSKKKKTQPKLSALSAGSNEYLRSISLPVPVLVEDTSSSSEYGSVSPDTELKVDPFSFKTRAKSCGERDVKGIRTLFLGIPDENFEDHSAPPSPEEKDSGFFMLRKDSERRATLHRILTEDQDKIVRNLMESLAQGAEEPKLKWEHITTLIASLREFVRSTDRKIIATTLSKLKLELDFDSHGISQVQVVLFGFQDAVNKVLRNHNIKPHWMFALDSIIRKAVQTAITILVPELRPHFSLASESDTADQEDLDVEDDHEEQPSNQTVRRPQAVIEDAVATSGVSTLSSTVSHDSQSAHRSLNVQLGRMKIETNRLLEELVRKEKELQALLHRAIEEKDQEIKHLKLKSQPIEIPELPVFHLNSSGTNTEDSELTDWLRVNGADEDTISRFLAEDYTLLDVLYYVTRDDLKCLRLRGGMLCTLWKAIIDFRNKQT

Chain of off-target kinases (Homo sapiens, UniProt Q9UM73, F1174L) (Q9UM73 19-1620 F1174L): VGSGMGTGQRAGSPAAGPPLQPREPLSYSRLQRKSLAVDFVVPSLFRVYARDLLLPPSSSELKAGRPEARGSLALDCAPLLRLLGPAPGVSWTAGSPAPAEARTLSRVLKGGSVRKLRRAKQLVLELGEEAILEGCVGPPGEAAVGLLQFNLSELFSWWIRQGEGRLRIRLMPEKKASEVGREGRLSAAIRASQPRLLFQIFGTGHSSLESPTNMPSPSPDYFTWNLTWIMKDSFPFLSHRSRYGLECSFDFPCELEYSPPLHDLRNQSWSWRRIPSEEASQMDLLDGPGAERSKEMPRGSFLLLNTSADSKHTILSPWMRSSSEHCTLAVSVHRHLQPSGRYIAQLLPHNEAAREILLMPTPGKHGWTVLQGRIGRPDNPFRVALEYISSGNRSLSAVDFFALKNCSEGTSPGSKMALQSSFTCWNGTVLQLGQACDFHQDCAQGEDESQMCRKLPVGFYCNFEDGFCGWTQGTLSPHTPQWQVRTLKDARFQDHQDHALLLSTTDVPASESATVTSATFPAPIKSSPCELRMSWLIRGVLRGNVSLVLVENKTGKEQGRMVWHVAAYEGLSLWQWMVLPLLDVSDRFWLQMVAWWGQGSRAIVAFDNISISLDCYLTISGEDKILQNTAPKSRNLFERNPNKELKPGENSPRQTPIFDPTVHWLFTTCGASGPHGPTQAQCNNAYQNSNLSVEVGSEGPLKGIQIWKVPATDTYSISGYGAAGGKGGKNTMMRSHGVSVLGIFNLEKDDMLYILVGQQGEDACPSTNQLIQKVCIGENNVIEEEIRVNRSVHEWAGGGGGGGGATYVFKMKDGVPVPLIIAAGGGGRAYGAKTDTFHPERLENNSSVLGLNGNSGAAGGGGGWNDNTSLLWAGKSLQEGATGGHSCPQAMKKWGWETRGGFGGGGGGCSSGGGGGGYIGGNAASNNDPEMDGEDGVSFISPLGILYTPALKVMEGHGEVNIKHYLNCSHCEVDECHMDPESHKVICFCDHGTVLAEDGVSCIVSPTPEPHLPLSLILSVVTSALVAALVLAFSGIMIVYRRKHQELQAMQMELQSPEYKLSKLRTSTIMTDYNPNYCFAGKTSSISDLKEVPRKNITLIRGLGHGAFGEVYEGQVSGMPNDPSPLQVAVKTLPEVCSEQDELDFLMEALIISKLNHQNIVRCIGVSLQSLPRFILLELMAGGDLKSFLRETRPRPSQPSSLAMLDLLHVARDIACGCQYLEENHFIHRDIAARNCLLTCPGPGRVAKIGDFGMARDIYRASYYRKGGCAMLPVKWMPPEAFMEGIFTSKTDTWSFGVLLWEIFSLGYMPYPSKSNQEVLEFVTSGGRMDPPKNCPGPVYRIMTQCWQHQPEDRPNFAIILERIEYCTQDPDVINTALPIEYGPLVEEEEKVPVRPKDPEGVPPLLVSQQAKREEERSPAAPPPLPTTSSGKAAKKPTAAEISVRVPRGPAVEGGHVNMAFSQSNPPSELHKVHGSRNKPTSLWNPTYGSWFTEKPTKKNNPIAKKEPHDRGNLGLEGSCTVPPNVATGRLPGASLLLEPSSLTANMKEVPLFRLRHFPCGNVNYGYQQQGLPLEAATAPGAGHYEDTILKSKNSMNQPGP
Chain of off-target kinases (Homo sapiens, UniProt P35968) (P35968 20-1356): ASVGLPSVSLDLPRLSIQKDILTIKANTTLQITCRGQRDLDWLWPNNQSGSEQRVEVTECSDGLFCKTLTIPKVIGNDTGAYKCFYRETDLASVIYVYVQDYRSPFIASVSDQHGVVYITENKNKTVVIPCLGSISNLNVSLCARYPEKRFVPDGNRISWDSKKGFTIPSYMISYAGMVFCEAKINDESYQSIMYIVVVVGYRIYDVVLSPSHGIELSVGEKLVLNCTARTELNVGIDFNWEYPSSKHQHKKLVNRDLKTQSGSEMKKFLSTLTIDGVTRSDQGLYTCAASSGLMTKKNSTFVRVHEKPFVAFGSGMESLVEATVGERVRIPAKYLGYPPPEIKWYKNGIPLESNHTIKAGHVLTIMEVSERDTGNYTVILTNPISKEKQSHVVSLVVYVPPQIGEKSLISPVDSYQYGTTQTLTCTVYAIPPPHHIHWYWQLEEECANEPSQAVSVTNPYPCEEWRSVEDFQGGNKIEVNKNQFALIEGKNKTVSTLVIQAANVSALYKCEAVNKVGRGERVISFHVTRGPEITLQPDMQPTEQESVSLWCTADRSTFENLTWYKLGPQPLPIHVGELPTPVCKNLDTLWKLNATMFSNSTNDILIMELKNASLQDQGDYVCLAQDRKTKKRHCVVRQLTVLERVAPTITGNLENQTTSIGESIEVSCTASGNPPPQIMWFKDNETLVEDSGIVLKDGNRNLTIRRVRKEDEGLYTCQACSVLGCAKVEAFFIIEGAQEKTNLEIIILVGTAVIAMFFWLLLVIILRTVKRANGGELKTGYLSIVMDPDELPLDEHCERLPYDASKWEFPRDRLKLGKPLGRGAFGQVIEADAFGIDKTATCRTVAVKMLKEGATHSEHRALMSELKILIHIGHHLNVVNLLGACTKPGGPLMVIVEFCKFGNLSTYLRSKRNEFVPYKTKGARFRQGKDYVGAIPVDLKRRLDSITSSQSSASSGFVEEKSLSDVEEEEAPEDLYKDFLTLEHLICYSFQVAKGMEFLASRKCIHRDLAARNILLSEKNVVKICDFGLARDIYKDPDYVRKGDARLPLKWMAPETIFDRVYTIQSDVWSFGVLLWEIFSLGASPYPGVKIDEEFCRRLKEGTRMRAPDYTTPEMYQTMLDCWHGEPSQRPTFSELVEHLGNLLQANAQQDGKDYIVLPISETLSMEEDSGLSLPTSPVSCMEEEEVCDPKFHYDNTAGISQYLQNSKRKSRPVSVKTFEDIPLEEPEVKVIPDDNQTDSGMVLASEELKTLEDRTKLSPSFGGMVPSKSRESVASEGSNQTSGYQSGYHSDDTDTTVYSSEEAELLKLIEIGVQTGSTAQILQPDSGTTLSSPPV
Chain of off-target kinases (Homo sapiens, UniProt Q9HBH9) (Q9HBH9 whole entry): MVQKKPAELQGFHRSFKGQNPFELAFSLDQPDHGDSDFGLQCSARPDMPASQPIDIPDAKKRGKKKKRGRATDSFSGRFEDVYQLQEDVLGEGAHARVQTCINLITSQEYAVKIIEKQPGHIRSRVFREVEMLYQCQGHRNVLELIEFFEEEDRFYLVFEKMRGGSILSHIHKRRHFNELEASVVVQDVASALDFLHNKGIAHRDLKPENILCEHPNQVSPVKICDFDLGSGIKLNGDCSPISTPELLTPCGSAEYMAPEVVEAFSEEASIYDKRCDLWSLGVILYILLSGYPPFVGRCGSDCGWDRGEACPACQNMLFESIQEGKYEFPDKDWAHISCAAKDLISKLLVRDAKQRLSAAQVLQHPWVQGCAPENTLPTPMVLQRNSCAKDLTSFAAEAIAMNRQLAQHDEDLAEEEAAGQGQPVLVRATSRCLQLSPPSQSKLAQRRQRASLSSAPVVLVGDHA
Chain of off-target kinases (Homo sapiens, UniProt Q9H4B4) (Q9H4B4 whole entry): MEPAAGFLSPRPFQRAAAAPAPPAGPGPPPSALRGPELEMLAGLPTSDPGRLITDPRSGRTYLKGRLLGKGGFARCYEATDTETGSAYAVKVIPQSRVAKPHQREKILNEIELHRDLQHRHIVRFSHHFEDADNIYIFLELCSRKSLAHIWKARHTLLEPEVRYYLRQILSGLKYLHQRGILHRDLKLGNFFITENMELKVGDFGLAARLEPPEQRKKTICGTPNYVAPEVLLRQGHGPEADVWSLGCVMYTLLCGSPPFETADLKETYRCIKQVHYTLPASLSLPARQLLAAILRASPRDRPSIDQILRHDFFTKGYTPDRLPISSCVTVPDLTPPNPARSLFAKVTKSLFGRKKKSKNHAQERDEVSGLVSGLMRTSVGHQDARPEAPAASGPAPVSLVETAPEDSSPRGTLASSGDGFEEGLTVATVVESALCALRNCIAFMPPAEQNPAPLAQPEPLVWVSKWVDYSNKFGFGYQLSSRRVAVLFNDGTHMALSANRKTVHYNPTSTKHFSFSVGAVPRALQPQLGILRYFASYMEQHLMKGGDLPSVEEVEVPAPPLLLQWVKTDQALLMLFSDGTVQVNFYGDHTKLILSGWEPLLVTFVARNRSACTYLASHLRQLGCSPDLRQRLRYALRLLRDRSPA
Chain of off-target kinases (Homo sapiens, UniProt Q8NEB9) (Q8NEB9 whole entry): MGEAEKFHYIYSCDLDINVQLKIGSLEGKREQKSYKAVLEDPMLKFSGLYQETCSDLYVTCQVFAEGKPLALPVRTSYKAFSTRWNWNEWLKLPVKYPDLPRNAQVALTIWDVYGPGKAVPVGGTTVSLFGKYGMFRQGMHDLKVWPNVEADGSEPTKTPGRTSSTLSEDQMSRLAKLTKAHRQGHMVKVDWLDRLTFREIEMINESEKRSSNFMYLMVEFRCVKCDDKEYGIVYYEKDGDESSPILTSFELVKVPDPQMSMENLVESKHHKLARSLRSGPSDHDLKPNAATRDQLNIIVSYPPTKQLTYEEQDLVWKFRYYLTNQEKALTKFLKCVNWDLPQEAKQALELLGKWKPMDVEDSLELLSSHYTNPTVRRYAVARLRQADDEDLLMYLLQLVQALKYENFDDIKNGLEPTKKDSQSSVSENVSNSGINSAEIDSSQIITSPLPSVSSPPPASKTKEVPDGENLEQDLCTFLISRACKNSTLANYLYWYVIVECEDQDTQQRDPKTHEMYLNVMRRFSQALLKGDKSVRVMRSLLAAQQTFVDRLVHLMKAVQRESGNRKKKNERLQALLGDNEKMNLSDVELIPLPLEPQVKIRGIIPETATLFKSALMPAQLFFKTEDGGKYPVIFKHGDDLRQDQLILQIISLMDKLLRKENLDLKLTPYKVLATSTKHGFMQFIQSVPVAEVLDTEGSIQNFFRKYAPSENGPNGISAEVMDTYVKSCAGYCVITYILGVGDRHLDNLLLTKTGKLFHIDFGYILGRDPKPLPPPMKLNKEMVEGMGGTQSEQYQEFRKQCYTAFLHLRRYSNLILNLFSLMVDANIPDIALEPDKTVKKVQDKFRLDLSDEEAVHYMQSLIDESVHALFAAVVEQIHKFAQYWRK

N#Cc1cc(-c2ncnc(Nc3ccc(N4CCN(C5COC5)CC4)cc3)n2)ccc1OC1CCOCC1 [Compound 1, 5-(4-((4-(4-(oxetan-3-yl)piperazin-1-yl)phenyl)amino)-1,3,5-triazin-2-yl)-2-((tetrahydro-2H-pyran-4-yl)oxy)benzonitrile]
% Inhibition 1 [1]: −5% | % Inhibition 2 [1]: −9% | % Inhibition Avg [1]: −7% | inhibition ([2]; read-out: % Inhibition 1): 51% | inhibition ([2]; read-out: % Inhibition 2): 53% | inhibition ([2]; read-out: % Inhibition Avg): 52% | inhibition ([3]; read-out: % Inhibition 1): 12% | inhibition ([3]; read-out: % Inhibition 2): 14% | inhibition ([3]; read-out: % Inhibition Avg): 13% | inhibition ([4]; read-out: % Inhibition 1): 86% | inhibition ([4]; read-out: % Inhibition 2): 88% | inhibition ([4]; read-out: % Inhibition Avg): 87% | inhibition ([5]; read-out: % Inhibition 1): 80% | inhibition ([5]; read-out: % Inhibition 2): 76% | inhibition ([5]; read-out: % Inhibition Avg): 78% | inhibition ([6]; read-out: % Inhibition 1): 7% | inhibition ([6]; read-out: % Inhibition 2): 8% | inhibition ([6]; read-out: % Inhibition Avg): 7%

Source: patent US11572590B2, “Methods for evaluating tumor cell spheroids using 3D microfluidic cell culture device” (Dana-Farber Cancer Institute, Inc., priority 2017, dated 2023)
